Results on twelve compounds are retold here after ChEMBL document CHEMBL3763104, “Antibacterial and antifungal activities of 2,3-pyrrolidinedione derivatives against oral pathogens” (2016).

Experiment [1] deals with Streptococcus mutans. Kind of experiment: Antimicrobial activity against Streptococcus mutans ATCC 35668 biofilm at 0.2 % after 1 hr by MTT assay relative to control. The format is functional.
The test system of experiment [2] is Candida albicans. Kind of experiment: Antimicrobial activity against Candida albicans ATCC 90028 biofilm at 0.2 % after 1 hr by MTT assay relative to control. It counts as functional.
For experiment [3], the system named is Candida albicans. Kind of experiment: Antimicrobial activity against Candida albicans ATCC 90028 biofilm after 1 hr by MTT assay. The format is functional, organism-based. (Formazan colour is commonly taken as a measure of viable cells.)
Experiment [4] concerns Streptococcus mutans. In words: Antimicrobial activity against Streptococcus mutans ATCC 35668 biofilm at 0.008 % after 1 hr by MTT assay relative to control. The format is functional.
For experiment [5], the system named is Streptococcus mutans. Kind of experiment: Antimicrobial activity against Streptococcus mutans ATCC 35668 biofilm at 0.04 % after 1 hr by MTT assay relative to control. It counts as functional.
Experiment [6] concerns Streptococcus mutans. In words: Antimicrobial activity against Streptococcus mutans ATCC 35668 biofilm at 1 % after 1 hr by MTT assay relative to control. It counts as functional.
Experiment [7] has as its system Candida albicans. Kind of experiment: Antimicrobial activity against Candida albicans ATCC 90028 biofilm at 0.008 % after 1 hr by MTT assay relative to control. The format is functional.
Experiment [8] has as its system Candida albicans. Kind of experiment: Antimicrobial activity against Candida albicans ATCC 90028 biofilm at 0.004 % after 1 hr by MTT assay relative to control. It counts as functional.
In experiment [9] the test system is Candida albicans. In words: Antimicrobial activity against Candida albicans ATCC 90028 biofilm at 1 % after 1 hr by MTT assay relative to control. The format is functional.

As for `N=C(NCCCCCCNC(=N)NC(=N)Nc1ccc(Cl)cc1)NC(=N)Nc1ccc(Cl)cc1` [CHLORHEXIDINE], the “inhibition (INH)” value in experiment [1] is reported as 93.6%; in experiment [2], 49.9%.
For `COc1ccc(CN2CC(CO)=C(OCc3ccccc3)C2=O)cc1`, the inhibition entry in [3] is “Dose-dependent effect”. The “inhibition (INH)” value in experiment [4] is on record as 0%; in experiment [5], 4.5%; in experiment [1], 2.8%; in [6], 5%; in experiment [7] it was 7.5%; in experiment [8], 6.3%. Also, the “inhibition (INH)” value in experiment [2] was determined as 20.9%; in [9] it was 36.1%.
Take `CCOC(=O)C1=C(OC)C(=O)N(C(=O)C(NC(=O)OC(C)(C)C)C(C)C)C1` (stereo unspecified): the inhibition entry in experiment [3] was “Dose-dependent effect”. The “inhibition (INH)” value was found to be 5% in experiment [4]; 9.4% in experiment [5]; 16.1% in [1]; 32.6% in [6]; 0% in experiment [7]; 7.8% in experiment [8]. Further, the “inhibition (INH)” value in experiment [2] was determined as 15.7%; in experiment [9], 30.7%.
Regarding `CCOC(=O)C1=C(OCc2ccccc2)C(=O)N(C(=O)C(NC(=O)OC(C)(C)C)C(C)C)C1` (stereo unspecified), the inhibition result in experiment [3] is “Dose-dependent effect”. Besides, the “inhibition (INH)” value in [4] is given as 23.1%; in [5], 28%; in [1], 48.6%; in experiment [6], 89.5%; in [7] it was 10.1%; in [8], 7.3%. In addition, the figures for the “inhibition (INH)” value in [2] and in [9] were 16.7% and 50.7%, respectively.
Regarding `CCOC(=O)C1=C(O[Si](C)(C)C(C)(C)C)C(=O)N(Cc2ccc(OC)cc2)C1`, the “inhibition (INH)” value in experiment [4] amounted to 1.4%; in experiment [5] it was 0.1%; in [1], 1.8%; in experiment [6] it was 50.6%; in experiment [7], 23.5%; in experiment [8], 11.8%. For the same compound, the “inhibition (INH)” value in experiment [2] was determined as 12.2%; in experiment [9] it was 17%.
Consider `CCOC(=O)C1=C(OCc2ccccc2)C(=O)N(Cc2ccc(OC)cc2)C1`, for which the inhibition entry in [3] is “Dose-dependent effect”. Besides, the “inhibition (INH)” value was 1% in experiment [4]; 5% in experiment [5]; 2.7% in experiment [1]; 0% in experiment [6]; 6% in experiment [7]; 14.7% in [8]. Also, the “inhibition (INH)” value in experiment [2] is reported as 23.1%; in experiment [9] it was 32.3%.
Regarding `COc1ccc(CN2CC(CO)=C(O[Si](C)(C)C(C)(C)C)C2=O)cc1`, the “inhibition (INH)” value turned out to be 11.4% in [4]; 15.4% in [5]; 13.3% in experiment [1]; 19.1% in experiment [6]; 4.5% in [7]; 19.4% in experiment [8]. Further, the “inhibition (INH)” value in experiment [2] is recorded as 21.3%; in experiment [9] it was 1%.
With `CCOC(=O)C1=C(OCc2ccccc2)C(=O)NC1`, the inhibition entry in [3] was “Dose-dependent effect”. Also, the “inhibition (INH)” value in experiment [4] worked out at 1.3%; in experiment [5] it was 3%; in experiment [1], 4.8%; in [6], 3.4%; in [7], 9.2%; in experiment [8], 23.2%. The “inhibition (INH)” value in experiment [2] was 27.9%; in [9] it was 43.2%.
For `CCOC(=O)C1=C(O)C(=O)N(Cc2ccc(OC)cc2)C1`, the “inhibition (INH)” value was 0% in [4]; 3.4% in [5]; 51.3% in experiment [1]; 25.6% in [6]; 19.8% in experiment [7]; 17.2% in experiment [8]. Besides, the “inhibition (INH)” value was 10.7% in experiment [2] and 45.5% in [9].
Consider `CCOC(=O)C1=C(OCc2ccccc2)C(=O)N(C(=O)[C@@H](N)C(C)C)C1.O=C(O)C(F)(F)F`, for which the “inhibition (INH)” value in [4] is given as 0.7%; in experiment [5] it was 1.2%; in [1] it was 3.1%; in [6] it was 47.3%; in [7] it was 18.5%; in [8], 12.3%. The results for the “inhibition (INH)” value in experiment [2] and in experiment [9] were 11.9% and 36.7%, respectively.
Take `CCCCCCCCCCC1=C(O[Si](C)(C)C(C)(C)C)C(=O)N(Cc2ccc(OC)cc2)C1`: the “inhibition (INH)” value stood at 10.7% in [4]; 4.3% in experiment [5]; 3.4% in experiment [1]; 0% in [6]; 12.1% in experiment [7]; 9% in experiment [8]. The figures for the “inhibition (INH)” value in experiment [2] and in [9] were 1.9% and 31.6%, respectively.
Turning to `CCCCCCCC/C=C/C1=C(OCc2ccccc2)C(=O)N(Cc2ccc(OC)cc2)C1`, in experiment [3], the inhibition result was “Dose-dependent effect”. For the same compound, the “inhibition (INH)” value in [4] came out at 2.4%; in experiment [5] it was 14.1%; in [1] it was 92.7%; in experiment [6], 93.2%; in [7] it was 0.2%; in experiment [8], 24.5%. Moreover, the “inhibition (INH)” value in experiment [2] is listed as 34%; in experiment [9], 60.8%.
